These results are taken from ChEMBL document CHEMBL1909046, “DrugMatrix in vitro pharmacology data”.

Assay [1] deals with T1, Alpha-1A adrenergic receptor (Rattus norvegicus, UniProt P43140).
T1 sequence (P43140 whole entry): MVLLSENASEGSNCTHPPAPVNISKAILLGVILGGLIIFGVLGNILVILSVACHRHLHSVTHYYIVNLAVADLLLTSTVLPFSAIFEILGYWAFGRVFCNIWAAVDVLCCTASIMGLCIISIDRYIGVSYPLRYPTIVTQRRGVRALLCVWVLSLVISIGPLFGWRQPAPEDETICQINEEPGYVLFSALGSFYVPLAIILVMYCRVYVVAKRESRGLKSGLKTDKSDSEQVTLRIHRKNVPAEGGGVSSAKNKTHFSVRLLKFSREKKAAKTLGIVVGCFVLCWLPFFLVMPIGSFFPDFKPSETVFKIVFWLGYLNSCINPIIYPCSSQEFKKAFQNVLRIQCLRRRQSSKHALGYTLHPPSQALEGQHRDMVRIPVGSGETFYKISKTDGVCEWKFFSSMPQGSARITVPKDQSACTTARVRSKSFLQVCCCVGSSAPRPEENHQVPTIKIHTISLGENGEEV
Briefly: DRUGMATRIX: Alpha-1A adrenergic receptor radioligand binding (ligand: prazosin). The assay is classed as cell membranes, Wistar, Submaxillary gland, Membrane. The following applies: Not Active = under 50% inhibition at 10 µM.

Assay [2] in a line: DRUGMATRIX: Platelet-Derived Growth Factor (PDGF) radioligand binding (ligand: [125I] PDGF). Type of assay: cell-based. The following applies: nih3t3; Not Active = under 50% inhibition at 10 µM.
The target of assay [3] is Mitogen-activated protein kinase 14 (Homo sapiens, UniProt Q16539). Also noted: species or system Escherichia coli.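 Note: inhibition of p38alpha enzyme activity in a biochemical kinase assay, with myelin basic protein serving as substrate; in other assays of this panel Not Active means under 50% inhibition at 10 µM.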
Sequence of Mitogen-activated protein kinase 14 (Q16539 whole entry): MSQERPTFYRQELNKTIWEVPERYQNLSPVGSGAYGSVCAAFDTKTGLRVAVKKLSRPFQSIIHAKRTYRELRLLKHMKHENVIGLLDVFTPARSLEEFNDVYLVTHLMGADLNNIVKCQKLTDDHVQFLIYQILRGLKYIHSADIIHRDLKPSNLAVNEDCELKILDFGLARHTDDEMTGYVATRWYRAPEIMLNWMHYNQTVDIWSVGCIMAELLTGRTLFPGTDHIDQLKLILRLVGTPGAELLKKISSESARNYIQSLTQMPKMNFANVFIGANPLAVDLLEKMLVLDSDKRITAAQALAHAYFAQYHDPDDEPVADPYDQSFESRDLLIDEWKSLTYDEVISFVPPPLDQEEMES
For assay [4], the target named is C-C chemokine receptor type 5 (Homo sapiens, UniProt P51681). Type of assay: cell membranes, Membrane. The following applies: hek293. Note: in other assays of this panel Not Active means under 50% inhibition at 10 µM.
Sequence of C-C chemokine receptor type 5 (P51681 whole entry): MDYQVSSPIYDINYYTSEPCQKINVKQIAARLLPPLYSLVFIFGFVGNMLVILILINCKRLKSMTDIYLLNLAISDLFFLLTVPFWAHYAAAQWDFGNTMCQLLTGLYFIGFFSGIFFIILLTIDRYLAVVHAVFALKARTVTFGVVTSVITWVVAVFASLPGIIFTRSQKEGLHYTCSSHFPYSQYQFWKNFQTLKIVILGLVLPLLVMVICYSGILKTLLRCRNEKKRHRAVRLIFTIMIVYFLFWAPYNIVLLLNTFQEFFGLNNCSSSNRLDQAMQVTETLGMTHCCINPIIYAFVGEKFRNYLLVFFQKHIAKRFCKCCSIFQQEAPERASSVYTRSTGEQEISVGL
Assay [5] deals with Sodium-dependent noradrenaline transporter (Homo sapiens, UniProt P23975). As to the kind of experiment: DRUGMATRIX: Norepinephrine Transporter radioligand binding (ligand: [125I] RTI-55). Type of assay: cell membranes, MDCK, Membrane. Conditions: Not Active = under 50% inhibition at 10 µM.
Sequence of Sodium-dependent noradrenaline transporter (P23975 whole entry): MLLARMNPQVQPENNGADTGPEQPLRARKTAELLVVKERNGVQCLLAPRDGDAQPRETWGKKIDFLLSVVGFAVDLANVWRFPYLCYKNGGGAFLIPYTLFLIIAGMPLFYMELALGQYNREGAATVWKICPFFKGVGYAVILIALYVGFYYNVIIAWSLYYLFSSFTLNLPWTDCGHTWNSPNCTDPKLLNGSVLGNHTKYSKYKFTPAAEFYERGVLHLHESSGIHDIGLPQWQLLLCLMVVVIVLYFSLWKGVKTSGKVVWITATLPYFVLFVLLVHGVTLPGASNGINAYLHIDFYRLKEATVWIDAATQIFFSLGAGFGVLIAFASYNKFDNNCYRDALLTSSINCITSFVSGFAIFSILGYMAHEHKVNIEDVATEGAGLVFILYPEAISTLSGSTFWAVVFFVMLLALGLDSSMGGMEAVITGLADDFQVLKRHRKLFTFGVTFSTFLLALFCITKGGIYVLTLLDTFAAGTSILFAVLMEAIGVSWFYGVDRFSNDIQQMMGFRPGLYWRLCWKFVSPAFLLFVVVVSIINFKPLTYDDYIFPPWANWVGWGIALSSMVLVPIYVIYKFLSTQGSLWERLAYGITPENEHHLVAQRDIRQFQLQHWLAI
For assay [6], the target named is T2, C-X-C chemokine receptor type 2 (Homo sapiens, UniProt P25025). Note: in other assays of this panel Not Active means under 50% inhibition at 10 µM.
T2 sequence (P25025 whole entry): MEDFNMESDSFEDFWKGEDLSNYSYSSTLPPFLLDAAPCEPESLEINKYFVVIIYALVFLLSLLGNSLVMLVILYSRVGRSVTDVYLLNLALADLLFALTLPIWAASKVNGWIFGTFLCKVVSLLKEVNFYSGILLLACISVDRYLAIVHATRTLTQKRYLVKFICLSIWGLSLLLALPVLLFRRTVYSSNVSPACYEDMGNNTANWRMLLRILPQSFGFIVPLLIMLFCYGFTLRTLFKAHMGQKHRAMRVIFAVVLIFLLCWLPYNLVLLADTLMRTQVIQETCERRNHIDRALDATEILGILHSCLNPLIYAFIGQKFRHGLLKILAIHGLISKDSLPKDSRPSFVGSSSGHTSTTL
The assay is classed as cell membranes, Membrane. The following applies: cho-k1.

A further assay deals with Acetylcholinesterase (Homo sapiens, UniProt P22303). As to the kind of experiment: DRUGMATRIX: Acetylcholinesterase enzyme inhibition (substrate: acetylthiocholine). Type of assay: cell-based, HEK293. Conditions: Not Active = under 50% inhibition at 10 µM.
Sequence of Acetylcholinesterase (P22303 whole entry): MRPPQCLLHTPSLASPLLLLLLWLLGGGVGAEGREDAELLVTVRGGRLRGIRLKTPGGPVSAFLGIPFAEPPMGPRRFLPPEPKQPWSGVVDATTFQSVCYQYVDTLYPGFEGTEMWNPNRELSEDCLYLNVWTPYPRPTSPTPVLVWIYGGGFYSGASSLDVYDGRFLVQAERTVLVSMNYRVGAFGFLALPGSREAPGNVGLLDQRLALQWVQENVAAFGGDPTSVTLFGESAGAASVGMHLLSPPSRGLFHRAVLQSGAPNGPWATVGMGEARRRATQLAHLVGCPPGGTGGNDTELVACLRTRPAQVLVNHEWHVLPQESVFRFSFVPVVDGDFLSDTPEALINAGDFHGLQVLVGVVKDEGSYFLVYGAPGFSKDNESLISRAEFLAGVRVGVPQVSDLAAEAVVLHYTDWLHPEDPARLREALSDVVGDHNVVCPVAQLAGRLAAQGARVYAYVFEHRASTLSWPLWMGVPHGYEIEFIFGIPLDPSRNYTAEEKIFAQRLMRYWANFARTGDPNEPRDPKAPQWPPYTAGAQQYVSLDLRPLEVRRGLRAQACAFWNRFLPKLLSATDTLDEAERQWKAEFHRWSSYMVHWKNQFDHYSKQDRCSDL

Broadly, the IC50 is the concentration needed to halve the response being measured. The Ki is the dissociation constant of the complex between target and ligand, obtained from inhibition or displacement.

In the case of `CN(C)CCCN1c2ccccc2Sc2ccccc21` [PROMAZINE], the IC50 in assay [1] (read-out: IC50) is 9.24 nM; in assay [2] it was “Not Active”; in assay [3], “Not Active”; in assay [4], “Not Active”; in assay [5] (read-out: IC50) it was 13 nM; in assay [6], “Not Active”. Further, the IC50 entry against Acetylcholinesterase (hek293) is listed as “Not Active”. Also, the Ki in assay [1] (read-out: Ki) was 3.74 nM; in assay [2], “Not Active”; in assay [5] (read-out: Ki), 13 nM.

Consider `Cc1c(C)c2c(c(C)c1O)CC[C@@](C)(CCC[C@H](C)CCC[C@H](C)CCCC(C)C)O2` [ALPHA-TOCOPHEROL], for which the IC50 result in assay [1], in assay [2], in assay [3], in assay [4], in assay [5] (mdck) and in assay [6] was “Not Active” each time. The IC50 result on Acetylcholinesterase (hek293) is on record as “Not Active”. Also, the inhibitory constant (Ki) result in assay [2] was “Not Active”.

As to `Cc1ccc(/N=C/N(C)/C=N/c2ccc(C)cc2C)c(C)c1` [AMITRAZ], the IC50 entry in assay [1], in assay [2], in assay [3], in assay [4], in assay [5] (mdck) and in assay [6] was “Not Active” in each case. Further, the IC50 entry against Acetylcholinesterase (hek293) is reported as “Not Active”. For the same compound, the Ki result in assay [2] is reported as “Not Active”.

Turning to `CN(C)c1nc(N(C)C)nc(N(C)C)n1` [ALTRETAMINE], the IC50 entry in assay [1], in assay [2], in assay [3], in assay [4], in assay [5] (mdck) and in assay [6] was “Not Active” throughout. Also, the IC50 result at Acetylcholinesterase (hek293) is reported as “Not Active”. For the same compound, in assay [2], the Ki entry is recorded as “Not Active”.

For the compound CADMIUM ACETATE, the IC50 entry in assay [1], in assay [2], in assay [3], in assay [4], in assay [5] (mdck) and in assay [6] was “Not Active” in each case. Also, the IC50 entry against Acetylcholinesterase (hek293) is “Not Active”. Moreover, the Ki result in assay [1], in assay [2], in assay [3], in assay [4], in assay [5] (mdck) and in assay [6] was “Not Active” in each case. Also, the Ki entry at Acetylcholinesterase (hek293) was “Not Active”.

In the case of `COc1cc2c3cc1Oc1cc(ccc1O)C[C@@H]1c4c(cc(OC)c(O)c4Oc4ccc(cc4)C[C@@H]3N(C)CC2)CC[N+]1(C)C.[Cl-]`, the IC50 entry in assay [1], in assay [2], in assay [3], in assay [4], in assay [5] (mdck) and in assay [6] was “Not Active” each time. The IC50 entry on Acetylcholinesterase (hek293) is “Not Active”. Moreover, the Ki result in assay [2] is “Not Active”.

`CN(Cc1ccc(C(C)(C)C)cc1)Cc1cccc2ccccc12` [BUTENAFINE]: the IC50 entry in assay [1] was “Not Active”; in assay [2] it was “Not Active”; in assay [3], “Not Active”; in assay [4] it was “Not Active”; in assay [5] (read-out: IC50), 3910 nM; in assay [6], “Not Active”. At Acetylcholinesterase (read-out: IC50), the IC50 stood at 6910 nM. The figures for the Ki result in assay [2] and in assay [5] (read-out: Ki) were “Not Active” and 3880 nM, respectively.

Turning to `C[C@H](CCC(=O)O)[C@H]1CC[C@H]2[C@@H]3[C@H](O)C[C@@H]4C[C@H](O)CC[C@]4(C)[C@H]3C[C@H](O)[C@]12C` [CHOLIC ACID], the IC50 entry in assay [1], in assay [2], in assay [3], in assay [4], in assay [5] (mdck) and in assay [6] was “Not Active” in each case. Moreover, the IC50 entry against Acetylcholinesterase (hek293) is recorded as “Not Active”. Further, in assay [2], the Ki result is “Not Active”.

As to `CC1=C2C(=CO[C@H](C)[C@H]2C)C(O)=C(C(=O)O)C1=O` [CITRININ], the IC50 result in assay [1], in assay [2], in assay [3], in assay [4], in assay [5] (mdck) and in assay [6] was “Not Active” throughout. Further, the IC50 result on Acetylcholinesterase (hek293) is recorded as “Not Active”. In assay [2], the Ki result is recorded as “Not Active”.

For the compound `O=C(CCCN1CC=C(n2c(=O)[nH]c3ccccc32)CC1)c1ccc(F)cc1` [DROPERIDOL], the IC50 in assay [1] (read-out: IC50) was 1.65 nM; in assay [2], “Not Active”; in assay [3] it was “Not Active”; in assay [4], “Not Active”; in assay [5] (mdck), “Not Active”; in assay [6] it was “Not Active”. Besides, the IC50 result against Acetylcholinesterase (hek293) is “Not Active”. Besides, the inhibition constant (Ki) in assay [1] (read-out: Ki) is 0.669 nM; in assay [2], “Not Active”.

For the compound `CCCCc1nc(Cl)c(CO)n1Cc1ccc(-c2ccccc2-c2nnn[nH]2)cc1` [LOSARTAN], the IC50 result in assay [1], in assay [2], in assay [3], in assay [4], in assay [5] (mdck) and in assay [6] was “Not Active” throughout. Besides, the IC50 result against Acetylcholinesterase (hek293) is “Not Active”. In assay [2], the inhibition constant (Ki) result is “Not Active”.

With `Cc1cc(C2CCCCC2)n(O)c(=O)c1` [CICLOPIROX], the IC50 result in assay [1], in assay [2], in assay [3], in assay [4], in assay [5] (mdck) and in assay [6] was “Not Active” throughout. Moreover, the IC50 entry on Acetylcholinesterase (hek293) is recorded as “Not Active”. In addition, in assay [2], the Ki entry is “Not Active”.

With `CCCCN1CCCC[C@H]1C(=O)Nc1c(C)cccc1C` [LEVOBUPIVACAINE], the IC50 result in assay [1], in assay [2], in assay [3], in assay [4], in assay [5] (mdck) and in assay [6] was “Not Active” each time. The IC50 result against Acetylcholinesterase (hek293) was “Not Active”. Further, in assay [2], the Ki entry is given as “Not Active”.

With `CC[C@@]1(O)C[C@H](O[C@H]2C[C@H](N(C)C)[C@H](O[C@H]3C[C@H](O)[C@H](O[C@H]4CCC(=O)[C@H](C)O4)[C@H](C)O3)[C@H](C)O2)c2c(cc3c(c2O)C(=O)c2c(O)cccc2C3=O)[C@H]1C(=O)OC` [ACLARUBICIN], the IC50 result in assay [1], in assay [2], in assay [3], in assay [4], in assay [5] (mdck) and in assay [6] was “Not Active” throughout. Further, on Acetylcholinesterase (hek293), the IC50 result is reported as “Not Active”. Further, the Ki entry in assay [2] is recorded as “Not Active”.

Consider `CC(=O)O[C@@]12CO[C@@H]1C[C@H](O)[C@@]1(C)C(=O)[C@H](O)C3=C(C)[C@@H](OC(=O)[C@H](O)[C@@H](NC(=O)OC(C)(C)C)c4ccccc4)C[C@@](O)([C@@H](OC(=O)c4ccccc4)[C@H]21)C3(C)C.O.O.O` [DOCETAXEL], for which the IC50 result in assay [1], in assay [2], in assay [3], in assay [4], in assay [5] (mdck) and in assay [6] was “Not Active” each time. Further, the IC50 entry against Acetylcholinesterase (hek293) is listed as “Not Active”. In assay [2], the Ki entry is “Not Active”.

Consider `N=C(N)NCCN1CCCCCCC1` [GUANETHIDINE], for which the IC50 entry in assay [1], in assay [2], in assay [3], in assay [4], in assay [5] (mdck) and in assay [6] was “Not Active” each time. Moreover, the IC50 result against Acetylcholinesterase (hek293) is given as “Not Active”. For the same compound, the Ki entry in assay [2] was “Not Active”.

For `CNCCc1ccccn1` [BETAHISTINE], the IC50 result in assay [1], in assay [2], in assay [3], in assay [4], in assay [5] (mdck) and in assay [6] was “Not Active” throughout. For the same compound, at Acetylcholinesterase (hek293), the IC50 result is on record as “Not Active”. Besides, in assay [2], the Ki result is “Not Active”.
